These are literature values, as cited in article PMC12679585, “Design, synthesis, and characterization of novel 5-ethylsulfonyl-indazole-3-carboxamides as dual VEGFR-2 and EGFR inhibitors: apoptotic antiproliferative and immunomodulatory evaluations” (RSC Advances, 2025).

For the series, the target named is EGFR (Homo sapiens, UniProt P00533). Also on record: 645–1186; His6 (N); made in house; host or cells: Sf-9 insect cells (baculovirus; vectors pBlueBacHis2B and pFASTBacHTc); method as in PMID 35667253. The note with it: cited from earlier work.

Molecules are shown by their SMILES.

EGFR, sequence (P00533 669-1210): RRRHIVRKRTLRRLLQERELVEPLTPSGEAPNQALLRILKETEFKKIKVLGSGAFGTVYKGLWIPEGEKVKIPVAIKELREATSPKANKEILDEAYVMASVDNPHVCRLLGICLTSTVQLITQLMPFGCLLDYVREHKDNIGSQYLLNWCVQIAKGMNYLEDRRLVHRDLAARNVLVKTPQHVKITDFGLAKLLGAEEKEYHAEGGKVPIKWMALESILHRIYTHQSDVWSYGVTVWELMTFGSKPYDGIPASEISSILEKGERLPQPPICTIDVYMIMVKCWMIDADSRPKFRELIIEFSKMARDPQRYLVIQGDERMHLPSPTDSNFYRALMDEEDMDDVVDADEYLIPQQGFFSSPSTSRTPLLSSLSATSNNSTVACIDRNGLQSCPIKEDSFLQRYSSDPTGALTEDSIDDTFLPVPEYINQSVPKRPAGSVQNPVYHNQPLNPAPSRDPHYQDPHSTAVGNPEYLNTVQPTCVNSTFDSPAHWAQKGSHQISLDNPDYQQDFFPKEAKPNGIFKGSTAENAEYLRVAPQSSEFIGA

For `CC(=O)Nc1ccc(/C(N)=N/OC(=O)c2ccc3cn[nH]c3c2)cc1` [Compound XIII], the IC50 was 85 ± 5 nM.
